Reference: paper PMC10648349, “Aromatic Diboronic Acids as Effective KPC/AmpC Inhibitors” (Molecules, 2023)
In brackets after ≈: the same amount, converted by molar mass.

How the values were obtained:
[1] = tested on: K. pneumoniae ATCC BAA-1705 KPC-2(+); experiment: MIC of tested agent alone, microdilution; format: cell-based; conditions: Klebsiella pneumoniae, ATCCBAA1705; read-out: MIC of agent alone
In short: (§1)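 Checkerboard microdilution; β-lactam 1–64 mg/L (7 two-fold steps) × agent/PBA 4–16 mg/L (3 two-fold steps). Agent-alone MIC by standard microdilution. FICI from first no-growth wells along growth interface.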

[2] = tested on: P. aeruginosa MUW 700 AmpC(+); experiment: MIC of tested agent alone, microdilution; format: cell-based; conditions: Pseudomonas aeruginosa; read-out: MIC of agent alone
In short: as §1

E. coli 77 CMY-2(+) [3] = experiment: MIC of tested agent alone, microdilution; format: cell-based; conditions: Escherichia coli; read-out: MIC of agent alone
In short: as §1

E. coli 76 KPC-2(+) = experiment: MIC of tested agent alone, microdilution; format: cell-based; conditions: Escherichia coli; read-out: MIC of agent alone
In short: as §1

[4] = tested on: K. pneumoniae 81 KPC-3(+); experiment: MIC of tested agent alone, microdilution; format: cell-based; conditions: Klebsiella pneumoniae; read-out: MIC of agent alone
In short: as §1

[5] = tested on: K. pneumoniae 83 KPC-3(+), CTX-M-3(+); experiment: MIC of tested agent alone, microdilution; format: cell-based; conditions: Klebsiella pneumoniae; read-out: MIC of agent alone
In short: as §1

[6] = tested on: K. pneumoniae ATCC BAA-1705 KPC-2-positive; experiment: checkerboard microdilution, antibiotic plus tested agent; format: cell-based, Klebsiella pneumoniae
In short: (§2)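 Chequerboard layout: tested agent in three two-fold steps (4–16 mg/L) crossed with seven β-lactam dilutions (1–64 mg/L), meropenem for KPC strains and ceftazidime for the cAmpC strain. FICI from first non-growth wells, off-scale MICs raised one doubling; ≤0.5 counts as synergy, >4 antagonism.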

[7] = tested on: K. pneumoniae 81 KPC-3-positive; experiment: as above; format: cell-based, Klebsiella pneumoniae
In short: as §2

[8] = tested on: K. pneumoniae 83 KPC-3-positive, CTX-M-3-positive; experiment: as above; format: cell-based, Klebsiella pneumoniae
In short: as §2

[9] = tested on: E. coli 76 KPC-2-positive; experiment: as above; format: cell-based, Escherichia coli
In short: as §2

[10] = tested on: P. aeruginosa MUW 700 AmpC(+); experiment: screening test of direct antimicrobial activity (STDA), disc-diffusion; format: cell-based; conditions: Pseudomonas aeruginosa; 0.3 mg per disc; - no zone; read-out: Diameter of inhibition zone around disc with tested agent
Experimental: (§3) Prior to combination disc tests, screening tests of direct antimicrobial activity (STDA) of the tested agent against β-lactamase-producing strains were performed by the disc-diffusion method. Discs with 0.3 mg, 0.1 mg, and 0.03 mg of each agent were examined. The highest amount of an agent that caused no effect on bacterial growth was used in further experiments.

[11] = tested on: K. pneumoniae ATCC 700603 ESBL(+); experiment: as above; format: cell-based; conditions: Klebsiella pneumoniae, ATCC700603; 0.3 mg per disc; - no zone; read-out: Diameter of inhibition zone around disc with tested agent
Experimental: as §3

E. coli 77 CMY-2(+) [12] = experiment: as above; format: cell-based; conditions: Escherichia coli, - no zone, read-out: Diameter of inhibition zone around disc with tested agent; for zone of inhibition at 300 µg/disc: 0.3 mg per disc
Experimental: as §3

[13] = tested on: K. pneumoniae ATCC BAA 1705 KPC(+); experiment: as above; format: cell-based; conditions: Klebsiella pneumoniae, BAA1705; 0.3 mg per disc; - no zone; read-out: Diameter of inhibition zone around disc with tested agent
Experimental: as §3

[14] = tested on: K. pneumoniae ATCC 700603 ESBL-positive; experiment: combination disc test CDT-ESBL; format: cell-based; conditions: Klebsiella pneumoniae, ATCC700603; agent 0.1 mg per disc; read-out: Diameter of inhibition zone, CAZ-30 disc with agent
[15] = tested on: C. guilliermondii IBA 155; experiment: antifungal activity (disc-diffusion, MIC, MFC); format: cell-based, Candida guilliermondii; conditions: Meyerozyma guilliermondii, IBA155; for zone of inhibition at 0.4 mg/disc: 0.4 mg per disc, 9 mm disc (fluconazole 0.025 mg, 6 mm disc), - no zone, read-out: Diameter of inhibition zone; for MIC: fluconazole by Etest
In short: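 Diboronic acids (DMSO solutions) at 0.4 mg per disc were used for diffusion testing. Dilution endpoints were MIC, MBC and MFC, per CLSI and EUCAST recommendations.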

Row | MIC [1] [µg/mL] | MIC [2] [µg/mL] | MIC (E. coli 77 CMY-2(+) [3]) [µg/mL] | MIC (E. coli 76 KPC-2(+)) [µg/mL] | MIC [4] [µg/mL] | MIC [5] [µg/mL] | MIC [15] [µg/mL] | Compound | Average FICI with ERT [6] | Average FICI with IMI [6] | Average FICI with MEM [6] | The lowest FICI with ERT [6] | The lowest FICI with IMI [6] | The lowest FICI with MEM [6] | Average FICI with ERT [7] | zone of inhibition at 300 µg/disc [10] [mm] | zone of inhibition at 300 µg/disc [11] [mm] | zone of inhibition at 300 µg/disc (E. coli 77 CMY-2(+) [12]) [mm] | zone of inhibition at 300 µg/disc [13] [mm] | zone of inhibition at 100 µg/disc [14] [mm] | zone of inhibition at 0.4 mg/disc [15] [mm] | other results
1 | 400 | > 400 | 200 | 200 | 200 | 200 | > 400 | OB(O)c1cc(B(O)O)c(F)cc1F [2c] |  |  |  |  |  |  |  | 11 | 13 | 15 | 14 | 13 |  | 
2 | 400 | > 400 | 200 | 200 | 400 | 400 | 400 (≈ 1980 µM) | OB(O)c1cc(F)c(F)c(B(O)O)c1 [2d] |  |  |  |  |  |  |  | 12 | 11 | 15 | 11 | 13 |  | 

The next lines start with the molecule.

Row | Compound | MIC [1] [µg/mL] | MIC [2] [µg/mL] | MIC (E. coli 77 CMY-2(+) [3]) [µg/mL] | MIC (E. coli 76 KPC-2(+)) [µg/mL] | MIC [4] [µg/mL] | MIC [5] [µg/mL] | MIC [15] [µg/mL] | Average FICI with ERT [6] | Average FICI with IMI [6] | Average FICI with MEM [6] | The lowest FICI with ERT [6] | The lowest FICI with IMI [6] | The lowest FICI with MEM [6] | Average FICI with ERT [7] | zone of inhibition at 300 µg/disc [10] [mm] | zone of inhibition at 300 µg/disc [11] [mm] | zone of inhibition at 300 µg/disc (E. coli 77 CMY-2(+) [12]) [mm] | zone of inhibition at 300 µg/disc [13] [mm] | zone of inhibition at 100 µg/disc [14] [mm] | zone of inhibition at 0.4 mg/disc [15] [mm] | other results
3 | OB(O)c1ccc(B(O)O)c(F)c1 [1b] | > 400 | > 400 | 400 | 400 | > 400 | > 400 | 400 (≈ 2180 µM) | 0.51 | 0.43 | 0.43 | 0.51 | 0.27 | 0.27 | 0.43 | 12 | 12 | 12 | 13 | 15 | 24 | Average FICI with IMI [7]: 0.35; Average FICI with MEM [7]: 0.28; The lowest FICI with ERT [7]: 0.27; The lowest FICI with IMI [7]: 0.26; The lowest FICI with MEM [7]: 0.08; Average FICI with ERT [8]: 0.43; Average FICI with IMI [8]: 0.43; Average FICI with MEM [8]: 0.60; The lowest FICI with ERT [8]: 0.27; The lowest FICI with IMI [8]: 0.27; The lowest FICI with MEM [8]: 0.27; Average FICI with ERT [9]: 0.32; Average FICI with IMI [9]: 0.32; Average FICI with MEM [9]: 0.36; The lowest FICI with ERT [9]: 0.17; The lowest FICI with IMI [9]: 0.17; The lowest FICI with MEM [9]: 0.27
4 | OB(O)c1ccc(B(O)O)c(F)c1F [1c] | 200 | 400 | 200 | 200 | 200 | 200 | > 400 |  |  |  |  |  |  |  | 13 | 14 | 17 | 12 | 14 |  | 
5 | OB(O)c1cc(F)c(B(O)O)c(F)c1 [1d] | 400 | > 400 | 400 | 400 | 400 | 400 | 200 (≈ 991 µM) | 0.86 | 0.69 | 0.44 | 0.54 | 0.52 | 0.29 | 0.40 | 12 | 14 | 13 | 15 | 14 | 16 | Average FICI with IMI [7]: 0.36; Average FICI with MEM [7]: 0.29; The lowest FICI with ERT [7]: 0.17; The lowest FICI with IMI [7]: 0.27; The lowest FICI with MEM [7]: 0.10; Average FICI with ERT [8]: 0.69; Average FICI with IMI [8]: 0.52; Average FICI with MEM [8]: 0.61; The lowest FICI with ERT [8]: 0.52; The lowest FICI with IMI [8]: 0.51; The lowest FICI with MEM [8]: 0.29; Average FICI with ERT [9]: 0.36; Average FICI with IMI [9]: 0.44; Average FICI with MEM [9]: 0.44; The lowest FICI with ERT [9]: 0.27; The lowest FICI with IMI [9]: 0.29; The lowest FICI with MEM [9]: 0.29
6 | OB(O)c1cc(F)c(B(O)O)cc1F [1e] | 200 | 200 | 100 | 100 | 200 | 200 | > 400 | 0.88 | 0.71 | 0.46 | 0.58 | 0.54 | 0.33 | 0.55 | 14 | 14 | 18 | 15 | 15 | 16 | Average FICI with IMI [7]: 0.38; Average FICI with MEM [7]: 0.46; The lowest FICI with ERT [7]: 0.52; The lowest FICI with IMI [7]: 0.29; The lowest FICI with MEM [7]: 0.33; Average FICI with ERT [8]: 0.63; Average FICI with IMI [8]: 0.55; Average FICI with MEM [8]: 0.63; The lowest FICI with ERT [8]: 0.33; The lowest FICI with IMI [8]: 0.52; The lowest FICI with MEM [8]: 0.33; Average FICI with ERT [9]: 0.39; Average FICI with IMI [9]: 0.51; Average FICI with MEM [9]: 0.51; The lowest FICI with ERT [9]: 0.29; The lowest FICI with IMI [9]: 0.41; The lowest FICI with MEM [9]: 0.41
7 | OB(O)c1cc(F)c(B(O)O)c(F)c1F [1f] | 100 | > 400 | 100 | 100 | 100 | 100 | 50 (≈ 228 µM) |  |  |  |  |  |  |  | 12 | 18 | 15 | 16 | 15 | 29 | 
8 | OB(O)c1cc(Br)c(B(O)O)cc1Br [1i] | 200 | > 400 | 100 | 100 | 200 | 200 | 25 (≈ 77.3 µM) |  |  |  |  |  |  |  | 12 | 13 | 16 | 15 | 14 | 34 | 
9 | O=Cc1cc(F)ccc1B(O)O [7b] |  |  |  |  |  |  | 25 (≈ 149 µM) |  |  |  |  |  |  |  |  | 13 | 14 | 14 |  | 27 | zone of inhibition at 100 µg/disc (E. coli 77 CMY-2(+) [12]; 0.1 mg per disc): 12 mm
